Test results as given in patent publication US6808884B2, “Methods and compositions for detecting polynucleotide duplex damage and errors” (California Institute of Technology, priority 2000, dated 2004).

Key:
[1] = system: DNA duplexes (SEQ ID NO:1 / SEQ ID NO:2) having base-pair mismatches; assay: Photocleavage of 17mer DNA duplexes with varied X-Y base pair, 365 nm irradiation, PAGE analysis; type: biochemical; details: duplex 10 μM, complex 1 μM, pH 7.0, 13 min at 365 nm
Protocol: A set of DNA duplexes was prepared having the following sequence: 3′-[…]-5′(SEQ ID NO:1)
5′-[…]-3′(SEQ ID NO:2),
where X and Y were varied to provide A-T, G-C, and the following mismatches: C-C, C-A, T-T, A-A, T-C, T-G, G-A, and G-G. All oligonucleotides were prepared using standard phosphoramidite chemistry, and were purified by reverse phase HPLC. The oligonucleotides were 5′ end-labeled with γ-^32P ATP (Dupont-NEN) and T4 polynucleotide kinase (New England Biolabs).
Duplexes (10 μM) were incubated with Δ or Λ [Rh(bpy)2 (chrysi)]^3+(1 μM in 50 mM Tris, 20 mM NaOAc, 18 mM NaCl, pH 7.0) for 11 minutes, then irradiated for 13 min at 365 nm using an Oriel HgXe arc lamp. The products were analyzed by PAGE (20%, denaturing), imaged using a Molecular Dynamics Phosphorimager. […] Here, cleavage occurred to the 3′ side of the mismatch site. […] Unlike the other recognized mismatches, the cleavage 3′ to C-A results in two products having different gel mobility, possibly the result of chemically different polymer termini. The cleavage of A-A was also distinctive.

[2] = system: DNA duplexes with mismatch-sequence context combinations; assay: DNA photocleavage with bases 5′ and 3′ of the mismatch site systematically changed; type: biochemical; details: flanking bases 5′ and 3′ of the mismatch systematically changed

Δ-[Rh(bpy)2 (chrysi)]Cl3 [Δ-[Rh(bpy)2 (chrysi)]^3+]
photocleavage at A-A mismatch, at the A-A site itself [1]: small amount of cleavage | photocleavage at A-A mismatch, base 3′ to the site [1]: strong cleavage | photocleavage at C-A mismatch ([1]; at the mismatched C and the neighbouring base 3′): Strong cutting | photocleavage intensity at C-C mismatch ([1]; cleavage 3′ of the mismatch site): strongest cleavage intensity | photocleavage intensity at T-C mismatch ([1]; compared with C-C): less intense cleavage | photocleavage intensity at T-T mismatch ([1]; compared with C-C): less intense cleavage | mismatch-sequence context combinations at which photocleavage was observed (count) [2]: 83 of 104 | mismatch-sequence context combinations at which photocleavage was observed (share) [2]: 80%

Λ[Rh(bpy)2 (chrysi)]Cl3 [Λ enantiomer]
mismatch pairs cleaved among C-C, C-A, T-T, A-A, T-C, T-G, G-A, G-G [1]: A-A mismatch is the only pair cleaved | photocleavage at A-A mismatch, relative to the other enantiomer [1]: weaker cleavage than the Δ enantiomer
